Experimental data as given in US20260365670A1, “EGFR INHIBITORS AND USES THEREOF” (DIZAL (JIANGSU) PHARMACEUTICAL CO., LTD., priority 2022, published 2026).
Like-named read-outs stand apart in the source and are kept apart here.

Assays:
EGFR wild type = biological target: T1, EGFR wild type (Homo sapiens, UniProt P00533); test: Inhibition of EGFR wild type biochemical enzymatic activity (HTRF); conditions: EGFR wild type, 1 mM ATP, 1 h at room temperature, read-out: IC50 @WT
T1 construct: purchased Carna Bio
How it was run: (§1)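 Each enzyme was first added to plates holding compound. The reaction was then started with ATP (1 mM) and peptide substrate (1 μM). It was stopped after 1 h at room temperature with EDTA detection reagents and read at 615/665 nm to derive IC50s.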

EGFR L858R = biological target: T2, EGFR L858R (Homo sapiens, UniProt P00533, L858R); test: Inhibition of EGFR L858R biochemical enzymatic activity (HTRF); conditions: 1 mM ATP, 1 h at room temperature, read-out: IC50 @L858R
T2 construct: purchased Carna Bio
How it was run: as §1

EGFR L858R/T790M = biological target: T3, EGFR L858R/T790M (Homo sapiens, UniProt P00533, L858R/T790M); test: Inhibition of EGFR L858R/T790M biochemical enzymatic activity (HTRF); conditions: EGFR L858R/T790M, 1 mM ATP, 1 h at room temperature, read-out: IC50 @L858R-T790M
T3 construct: purchased Carna Bio
How it was run: as §1

EGFR Exon19Del = biological target: T4, EGFR Exon19Del (Homo sapiens, UniProt P00533, DEL746-750); test: Inhibition of EGFR Exon19Del biochemical enzymatic activity (HTRF); conditions: EGFR Exon19Del, 1 mM ATP, 1 h at room temperature, read-out: IC50 @Del19
T4 construct: purchased Carna Bio
How it was run: as §1

EGFR Exon19Del/T790M = biological target: T5, EGFR Exon19Del/T790M (Homo sapiens, UniProt P00533, DEL746-750/T790M); test: Inhibition of EGFR Exon19Del/T790M biochemical enzymatic activity (HTRF); conditions: EGFR Exon19Del/T790M, 1 mM ATP, 1 h at room temperature, read-out: IC50 @Del19-T790M
T5 construct: purchased Carna Bio
How it was run: as §1

EGFR[T790M/C797S/L858R] = biological target: T6, EGFR[T790M/C797S/L858R] (Homo sapiens, UniProt P00533, C797S/L858R/T790M); test: Inhibition of EGFR[T790M/C797S/L858R] biochemical enzymatic activity (HTRF); conditions: EGFR[T790M/C797S/L858R], 1 mM ATP, 1 h at room temperature, read-out: IC50 @T790M- C797S - L858R
T6 construct: purchased Carna Bio
How it was run: as §1

[1] = biological target: T7, EGFR[T790M/C797S/d746-750] (Homo sapiens, UniProt P00533, C797S/DEL746-750/T790M); test: Inhibition of EGFR[T790M/C797S/d746-750] biochemical enzymatic activity (HTRF); conditions: EGFR[T790M/C797S/d746-750], 1 mM ATP, 1 h at room temperature, read-out: IC50 @T790M - C797S - Del19
T7 construct: purchased Carna Bio
How it was run: as §1

EGFR (d746-750 C797S) = biological target: T8, EGFR (d746-750 C797S) (Homo sapiens, UniProt P00533, C797S/DEL746-750); test: Inhibition of EGFR (d746-750 C797S) biochemical enzymatic activity (HTRF); conditions: EGFR (d746-750 C797S), 1 mM ATP, 1 h at room temperature, read-out: IC50 @Del19-C797S
T8 construct: purchased signalchem
How it was run: as §1

EGFR (C797S L858R) = biological target: T9, EGFR (C797S L858R) (Homo sapiens, UniProt P00533, C797S/L858R); test: Inhibition of EGFR (C797S L858R) biochemical enzymatic activity (HTRF); conditions: EGFR (C797S L858R), 1 mM ATP, 1 h at room temperature, read-out: IC50 @L858-C797S
T9 construct: purchased signalchem
How it was run: as §1

[2] = tested on: Ba/F3 cells expressing EGFR mutations; test: Cell proliferation assay, Ba/F3 cells expressing EGFR mutations (CellTiter-Glo, 72 hours); assay type: cell-based
How it was run: (§2)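 Ba/F3 cells (5000/well) and PC-9 cells (500/well, RPMI1640 with 10% FBS) were plated overnight and then dosed with a compound concentration series. Viable cells were read at day 0 (G0) and after treatment (G3). GI50 came from curve fits of G0-corrected proliferation relative to DMSO.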

PC-9 = test: Cell proliferation assay, PC-9 cells (CellTiter-Glo, 72 hours); assay type: cell-based; conditions: PC9 cells, read-out: GI50 PC9
How it was run: as §2

A-431 = test: Cell proliferation assay, A-431 cells (GI50, Table 6); assay type: cell-based
[3] = BaF3 cells, EGFR DEL19 - C797S, read-out: GI50 DEL19 - C797S/BaF3
[4] = BaF3 cells, EGFR DEL19 - T790-C797S, read-out: GI50 DEL19 - T790-C797S/BaF3
[5] = BaF3 cells, EGFR L858R - C797S, read-out: GI50 L858R - C797S/BaF3
[6] = BaF3 cells, EGFR L858R - T790-C797S, read-out: GI50 L858R - T790-C797S/BaF3
[7] = BaF3 cells, EGFR L858R - T790M, read-out: GI50 L858R - T790M/BaF3
[8] = BaF3 cells, EGFR L858R, read-out: GI50 L858R/BaF3
[9] = EGFR DEL19 - T790M, read-out: GI50 DEL19 - T790M
[10] = Mus musculus, BaF3, 72 h, BaF3 cells, EGFR DEL19 - C797S, read-out: GI50 DEL19 - C797S/BaF3
[11] = Mus musculus, BaF3, 72 h, BaF3 cells, EGFR DEL19 - T790-C797S, read-out: GI50 DEL19 - T790-C797S/BaF3
[12] = Mus musculus, BaF3, 72 h, BaF3 cells, EGFR L858R - C797S, read-out: GI50 L858R - C797S/BaF3
[13] = Mus musculus, BaF3, 72 h, BaF3 cells, EGFR L858R - T790-C797S, read-out: GI50 L858R - T790-C797S/BaF3
[14] = Mus musculus, BaF3, 72 h, BaF3 cells, EGFR L858R - T790M, read-out: GI50 L858R - T790M/BaF3
[15] = Mus musculus, BaF3, 72 h, BaF3 cells, EGFR L858R, read-out: GI50 L858R/BaF3
[16] = Mus musculus, BaF3, 72 h, EGFR DEL19 - T790M, read-out: GI50 DEL19 - T790M
[17] = Homo sapiens, A-431, A-431 cells

T8 sequence (P00533 with tags, fused parts or gaps DEL746-750/C797S limits assumed): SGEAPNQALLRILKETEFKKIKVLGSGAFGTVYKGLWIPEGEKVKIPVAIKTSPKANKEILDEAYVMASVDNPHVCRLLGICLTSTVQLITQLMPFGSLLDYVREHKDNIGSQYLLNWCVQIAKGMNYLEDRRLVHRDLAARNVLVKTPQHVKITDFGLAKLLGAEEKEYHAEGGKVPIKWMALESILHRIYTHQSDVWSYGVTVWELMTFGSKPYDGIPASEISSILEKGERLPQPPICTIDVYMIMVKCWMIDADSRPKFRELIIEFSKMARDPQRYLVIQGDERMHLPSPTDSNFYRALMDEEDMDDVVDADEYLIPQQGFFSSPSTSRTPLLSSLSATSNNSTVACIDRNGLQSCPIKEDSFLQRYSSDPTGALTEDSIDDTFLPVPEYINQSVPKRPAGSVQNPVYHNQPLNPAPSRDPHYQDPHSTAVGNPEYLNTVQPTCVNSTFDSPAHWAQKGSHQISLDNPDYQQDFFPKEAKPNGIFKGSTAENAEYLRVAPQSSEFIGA
T1 sequence (P00533 25-1210): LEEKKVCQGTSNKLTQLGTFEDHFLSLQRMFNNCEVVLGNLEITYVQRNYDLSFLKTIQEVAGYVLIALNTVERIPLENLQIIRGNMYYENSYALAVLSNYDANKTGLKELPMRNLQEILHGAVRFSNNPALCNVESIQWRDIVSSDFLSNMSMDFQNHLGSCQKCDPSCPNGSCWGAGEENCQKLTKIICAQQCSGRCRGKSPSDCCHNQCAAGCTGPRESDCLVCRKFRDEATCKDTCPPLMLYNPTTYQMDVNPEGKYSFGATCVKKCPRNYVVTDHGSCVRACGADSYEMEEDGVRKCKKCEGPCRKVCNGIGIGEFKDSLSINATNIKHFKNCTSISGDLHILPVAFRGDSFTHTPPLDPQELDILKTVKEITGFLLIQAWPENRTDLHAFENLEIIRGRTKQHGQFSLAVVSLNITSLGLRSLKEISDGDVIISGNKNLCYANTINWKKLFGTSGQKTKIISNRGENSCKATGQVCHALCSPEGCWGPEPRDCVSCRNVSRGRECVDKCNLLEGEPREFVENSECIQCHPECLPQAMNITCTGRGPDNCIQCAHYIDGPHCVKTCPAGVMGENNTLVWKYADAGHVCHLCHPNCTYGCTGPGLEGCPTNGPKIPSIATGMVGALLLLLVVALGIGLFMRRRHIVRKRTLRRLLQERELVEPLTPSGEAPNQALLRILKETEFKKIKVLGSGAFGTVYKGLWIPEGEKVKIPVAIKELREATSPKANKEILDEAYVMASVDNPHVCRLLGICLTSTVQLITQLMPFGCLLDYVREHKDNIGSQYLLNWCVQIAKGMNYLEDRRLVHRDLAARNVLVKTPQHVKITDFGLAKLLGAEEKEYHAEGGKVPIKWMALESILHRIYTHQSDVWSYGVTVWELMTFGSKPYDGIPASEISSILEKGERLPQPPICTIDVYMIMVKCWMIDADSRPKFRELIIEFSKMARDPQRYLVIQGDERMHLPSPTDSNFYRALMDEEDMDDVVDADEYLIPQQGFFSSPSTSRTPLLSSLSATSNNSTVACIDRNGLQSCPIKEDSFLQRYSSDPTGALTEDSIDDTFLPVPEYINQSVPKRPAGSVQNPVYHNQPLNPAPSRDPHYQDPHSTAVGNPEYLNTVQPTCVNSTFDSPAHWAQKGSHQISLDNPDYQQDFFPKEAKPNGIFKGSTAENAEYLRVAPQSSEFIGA
T4 sequence (P00533 with tags, fused parts or gaps DEL746-750 limits assumed): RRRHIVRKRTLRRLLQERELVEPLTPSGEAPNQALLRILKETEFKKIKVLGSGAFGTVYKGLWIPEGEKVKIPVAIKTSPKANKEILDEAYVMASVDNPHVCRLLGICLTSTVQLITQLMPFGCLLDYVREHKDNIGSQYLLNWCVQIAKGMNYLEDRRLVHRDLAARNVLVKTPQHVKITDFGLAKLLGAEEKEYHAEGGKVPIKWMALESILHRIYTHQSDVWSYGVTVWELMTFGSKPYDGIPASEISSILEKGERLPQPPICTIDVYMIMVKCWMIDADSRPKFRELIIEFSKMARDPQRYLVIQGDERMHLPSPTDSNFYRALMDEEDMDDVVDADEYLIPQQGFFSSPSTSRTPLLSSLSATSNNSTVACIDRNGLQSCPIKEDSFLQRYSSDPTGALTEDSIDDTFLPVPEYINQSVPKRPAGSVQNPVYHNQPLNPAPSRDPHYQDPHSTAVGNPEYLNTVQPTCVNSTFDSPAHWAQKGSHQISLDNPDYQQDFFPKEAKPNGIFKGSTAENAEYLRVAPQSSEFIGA
T5 sequence (P00533 with tags, fused parts or gaps DEL746-750/T790M limits assumed): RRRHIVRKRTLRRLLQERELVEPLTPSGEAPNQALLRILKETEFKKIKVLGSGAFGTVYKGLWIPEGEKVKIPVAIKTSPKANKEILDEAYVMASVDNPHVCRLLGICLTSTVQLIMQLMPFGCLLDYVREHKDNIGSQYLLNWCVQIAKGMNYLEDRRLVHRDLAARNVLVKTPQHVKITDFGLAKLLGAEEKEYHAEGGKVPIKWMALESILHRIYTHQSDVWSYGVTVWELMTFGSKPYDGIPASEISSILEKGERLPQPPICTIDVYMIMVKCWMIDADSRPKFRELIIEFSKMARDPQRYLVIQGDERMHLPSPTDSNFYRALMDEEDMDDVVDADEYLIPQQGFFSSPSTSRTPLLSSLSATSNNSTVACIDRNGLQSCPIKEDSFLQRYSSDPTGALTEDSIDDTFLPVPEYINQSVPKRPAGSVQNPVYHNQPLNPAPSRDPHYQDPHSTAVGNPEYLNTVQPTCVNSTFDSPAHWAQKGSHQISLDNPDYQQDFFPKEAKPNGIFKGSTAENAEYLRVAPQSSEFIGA
T2 sequence (P00533 25-1210 L858R): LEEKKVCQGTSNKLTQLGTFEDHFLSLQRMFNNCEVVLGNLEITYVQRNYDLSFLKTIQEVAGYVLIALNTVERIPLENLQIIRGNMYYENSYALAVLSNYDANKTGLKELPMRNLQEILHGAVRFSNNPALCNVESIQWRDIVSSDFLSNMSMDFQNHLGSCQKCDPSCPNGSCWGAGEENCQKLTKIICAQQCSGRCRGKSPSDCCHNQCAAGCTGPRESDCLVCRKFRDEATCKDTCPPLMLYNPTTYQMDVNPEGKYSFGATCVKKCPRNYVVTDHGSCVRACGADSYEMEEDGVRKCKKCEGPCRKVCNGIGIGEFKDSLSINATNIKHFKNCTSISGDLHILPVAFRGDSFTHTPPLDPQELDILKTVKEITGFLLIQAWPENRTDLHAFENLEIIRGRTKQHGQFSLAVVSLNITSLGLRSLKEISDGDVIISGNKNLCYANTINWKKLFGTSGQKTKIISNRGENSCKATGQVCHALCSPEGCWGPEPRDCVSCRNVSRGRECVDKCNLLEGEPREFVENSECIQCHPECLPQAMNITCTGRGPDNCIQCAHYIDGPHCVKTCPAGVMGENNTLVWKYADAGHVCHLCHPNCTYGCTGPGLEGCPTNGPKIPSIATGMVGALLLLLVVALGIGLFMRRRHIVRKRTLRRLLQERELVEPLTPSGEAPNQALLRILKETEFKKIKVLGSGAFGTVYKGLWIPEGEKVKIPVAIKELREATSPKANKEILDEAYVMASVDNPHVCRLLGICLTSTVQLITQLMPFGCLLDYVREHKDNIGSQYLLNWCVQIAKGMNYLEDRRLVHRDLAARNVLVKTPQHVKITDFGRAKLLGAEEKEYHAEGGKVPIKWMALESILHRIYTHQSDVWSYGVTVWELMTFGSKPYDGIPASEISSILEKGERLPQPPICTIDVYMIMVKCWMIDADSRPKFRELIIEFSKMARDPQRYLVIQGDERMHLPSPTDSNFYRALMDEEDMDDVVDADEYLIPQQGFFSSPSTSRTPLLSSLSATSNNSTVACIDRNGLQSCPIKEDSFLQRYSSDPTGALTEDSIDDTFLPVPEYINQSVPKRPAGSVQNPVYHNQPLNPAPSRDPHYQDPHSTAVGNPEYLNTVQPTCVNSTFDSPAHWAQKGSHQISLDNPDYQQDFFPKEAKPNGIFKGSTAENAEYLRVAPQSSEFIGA
T7 sequence (P00533 with tags, fused parts or gaps DEL746-750/T790M/C797S limits assumed): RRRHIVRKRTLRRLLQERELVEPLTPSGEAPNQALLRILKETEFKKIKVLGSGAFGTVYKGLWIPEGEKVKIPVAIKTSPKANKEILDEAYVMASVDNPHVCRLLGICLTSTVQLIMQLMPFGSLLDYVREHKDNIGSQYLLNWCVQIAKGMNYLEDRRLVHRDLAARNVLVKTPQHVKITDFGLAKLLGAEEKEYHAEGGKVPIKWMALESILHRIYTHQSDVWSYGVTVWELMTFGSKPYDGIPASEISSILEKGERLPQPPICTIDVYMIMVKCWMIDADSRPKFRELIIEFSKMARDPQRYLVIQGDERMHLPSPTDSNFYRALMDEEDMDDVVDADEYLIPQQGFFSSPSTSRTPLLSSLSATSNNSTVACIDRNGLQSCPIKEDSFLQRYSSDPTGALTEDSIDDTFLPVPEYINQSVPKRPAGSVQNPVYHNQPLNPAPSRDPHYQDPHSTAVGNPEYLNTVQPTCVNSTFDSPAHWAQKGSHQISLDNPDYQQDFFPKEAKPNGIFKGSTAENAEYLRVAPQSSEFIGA

`Cc1cc2cc(n1)-c1cnn(C)c1OCCN1CC3CCC(C3)(C1)n1c(nc3ccc(N4CCOCC4)cc31)NC2=O` (single isomer, unassigned) [Example B10B, 15,21-Dimethyl-5-(morpholin-4-yl)-23-oxa-2,9,11,16,20,21,26-heptaazaheptacyclo[24.4.1.1^{1,28}.1^{13,17}.0^{2,10}.0^{3,8}.0^{18,22}]tritriaconta-3,5,7,9,13,15,17(33),18(22),19-nonaen-12-one] showed an IC50 (EGFR wild type) greater than 5000 nM, an IC50 (EGFR L858R) greater than 5000 nM and an IC50 (EGFR L858R/T790M) greater than 5000 nM. The IC50 (EGFR Exon19Del) was 1080 nM, the IC50 (EGFR Exon19Del/T790M) was greater than 5000 nM and the IC50 (EGFR[T790M/C797S/L858R]) was greater than 5000 nM. It also gave an IC50 [1] of 4040 nM, an IC50 (EGFR (d746-750 C797S)) of 1430 nM and an IC50 (EGFR (C797S L858R)) greater than 5000 nM. It also gave a GI50 [2, 3] of 403 nM, a GI50 [2, 4] of 516 nM and a GI50 [2, 5] of 1580 nM. It also gave a GI50 [2, 6] of 595 nM, a GI50 [2, 7] of 539 nM and a GI50 [2, 8] of 2910 nM. For the same compound, the GI50 [2, 9] was 765 nM, the GI50 (PC-9) was 2620 nM and the GI50 (A-431; A-431 cells) was 5520 nM.

For `Cc1cc2cc(n1)-c1cnn(C)c1OCCC[C@@H](C)Cn1c(nc3ccc4c(c31)CCN(CCN(C)C)C4)NC2=O` [Example B12, (11R)-18-[2-(dimethylamino)ethyl]-5,11,30-trimethyl-7-oxa-4,5,13,18,24,26,31-heptaazahexacyclo[26.3.1.0^{2,6}.0^{13,25}.0^{14,23}.0^{15,20}]dotriaconta-1(31),2(6),3,14,20,22,24,28(32),29-nonaen-27-one], the IC50 (EGFR wild type) was greater than 5000 nM, the IC50 (EGFR L858R) was 44 nM and the IC50 (EGFR L858R/T790M) was 3.9 nM. For the same compound, the IC50 (EGFR Exon19Del) was 3.7 nM, the IC50 (EGFR Exon19Del/T790M) was 2.5 nM and the IC50 (EGFR[T790M/C797S/L858R]) was 3 nM. The IC50 [1] was 2.6 nM, the IC50 (EGFR (d746-750 C797S)) was 2.3 nM and the IC50 (EGFR (C797S L858R)) was 11 nM. For the same compound, the GI50 [2, 10] was 1.4 nM, the GI50 [2, 11] was 0.56 nM and the GI50 [2, 12] was 5.6 nM. It also gave a GI50 [2, 13] of 0.38 nM, a GI50 [2, 14] of 1 nM and a GI50 [2, 15] of 4 nM. It also gave a GI50 [2, 16] of 0.79 nM, a GI50 (PC-9; Homo sapiens, PC-9, 72 h) of 12 nM and a GI50 (A-431; [17]) of 1080 nM.

Work on `Cc1cc2cc(n1)-c1cnn(C)c1OCCN1CC3CCC(CC3)(C1)n1c(nc3ccc(N4CCC5(CC4)CCN5C)cc31)NC2=O` [Example B30] yielded an IC50 (EGFR wild type) greater than 5000 nM, an IC50 (EGFR L858R) of 110 nM and an IC50 (EGFR L858R/T790M) of 11 nM. It also gave an IC50 (EGFR Exon19Del) of 17 nM, an IC50 (EGFR Exon19Del/T790M) of 12 nM and an IC50 (EGFR[T790M/C797S/L858R]) of 5.6 nM. It also gave an IC50 [1] of 4.9 nM, an IC50 (EGFR (d746-750 C797S)) of 8.7 nM and an IC50 (EGFR (C797S L858R)) of 64 nM. For the same compound, the GI50 [2, 10] was 3 nM, the GI50 [2, 11] was 2 nM and the GI50 [2, 12] was 35 nM. For the same compound, the GI50 [2, 13] was 4 nM, the GI50 [2, 14] was 9 nM and the GI50 [2, 15] was 22 nM. The GI50 [2, 16] was 2 nM, the GI50 (PC-9; Homo sapiens, PC-9, 72 h) was 33 nM and the GI50 (A-431; [17]) was 3560 nM.

`Cc1cc2cc(n1)-c1cnn(C)c1OCCN1CC3CCC(C3)(C1)n1c(nc3ccc(N4CCOCC4)cc31)NC2=O` (single isomer, unassigned) [Example B10A, 15,21-Dimethyl-5-(morpholin-4-yl)-23-oxa-2,9,11,16,20,21,26-heptaazaheptacyclo[24.4.1.1^{1,28}.1^{13,17}.0^{2,10}.0^{3,8}.0^{18,22}]tritriaconta-3,5,7,9,13,15,17(33),18(22),19-nonaen-12-one] showed an IC50 (EGFR wild type) of 3370 nM, an IC50 (EGFR L858R) of 212 nM and an IC50 (EGFR L858R/T790M) of 2.6 nM. It also gave an IC50 (EGFR Exon19Del) of 4.6 nM, an IC50 (EGFR Exon19Del/T790M) of 2.8 nM and an IC50 (EGFR[T790M/C797S/L858R]) of 2.6 nM. The IC50 [1] was 2.2 nM, the IC50 (EGFR (d746-750 C797S)) was 2.3 nM and the IC50 (EGFR (C797S L858R)) was 59 nM. It also gave a GI50 [2, 3] of 0.79 nM, a GI50 [2, 4] of 0.84 nM and a GI50 [2, 5] of 18 nM. It also gave a GI50 [2, 6] of 0.91 nM, a GI50 [2, 7] of 2.1 nM and a GI50 [2, 8] of 24 nM. For the same compound, the GI50 [2, 9] was 0.89 nM, the GI50 (PC-9) was 41 nM and the GI50 (A-431; A-431 cells) was 1730 nM.
